Measured values taken from patent publication US5298621A, “Oligopeptide derivatives of ipoxantine endowed with immunomodulating activity and pharmaceutical compositions containing same” (Sigma-Tau Industrie Farmaceutiche Riunite S.p.A., priority 1990, dated 1994).

Experiments:
[1] = test system: K. pneumoniae; assay: Protective effect in immunodepressed mice experimentally infected with K. pneumoniae; type: in vivo; details: for % Mortality: cyclophosphamide immunodepressed
Source text: Test 2 Assessment of the protective effect induced by ST 657, ST 733, ST 754 and ST 789 on immunodepressed mice experimentally infected.
Male CD1 mice (Charles River, Italy) of different ages were used: mice aged 6 and 12 weeks infected with Klebsiella and mice aged 7 weeks infected with Salmonella (10 mice per group).
Systemic infection in mice was induced via i.p. inoculum of either a pathogenic strain of Klebsiella (K. pneumoniae) or a pathogenic strain of Salmonella (S. typhimurium), which were able to provoke death of the animals within 5 and 20 days, respectively, following the challenge.
Infective doses prepared from overnight broth cultures corresponding to 1.5×10^5 and 3.5×10^5 live cells of K. pneumoniae, and 1×10^3 live cells of S. typhimurium were suspended in 0.2 mL of 5% gastric mucine and then injected.
The immunosuppressor (cyclophosphamide) was administered i.p. in 0.2 mL of sterile saline, 100 mg/kg, 5 days before the infective challenge.
The compounds were administered i.p., 0.25 and 25 mg/kg/day, from day -5 to day -1 (challenge at day 0).
The results obtained are expressed as % mortality and statistically processed with the Fisher's exact test (Biostatistics in Pharmacology, vol. II, Pergamon Press).

[2] = test system: Sarcoma S 180 cells; assay: Protective effect in S 180 Sarcoma-bearing mice; type: in vivo; details: for Dead/total / MST (mean survival time calculated by the median and the first interquartile range): 0.25 mg/kg i.p. from day +1 to day +10; for Weight control (x ± S.E.): 0.25 mg/kg/day i.p. day +1 to +10, in g (unit assumed); for number of surviving animals at the indicated day / animals survived (footnote, end of observation): group of 9, 0.25 mg/kg/day; for animals survived (footnote, end of observation): after day +26
Experimental: Test 4 Assessement of the protective effect of ST 657 and ST 789 in tumor-bearing mice.
Male DBA/2 mice and male CD1 mice (Charles River), both aged 6 weeks, were used.
CD1 mice were inoculated i.p. with 1×10^3 Sarcoma S 180 cells (ATCC, loc. cit.) in 0.1 mL of Hank's medium.
The compounds were adminstered i.p. in sterile saline (0.25 mg/kg/day) from day +1 to day +10 (tumor transplantation at day 0).
Also the body weight of the animals was monitored, from day 0 to day +16 for the L 1210 leukemia-bearing mice, and from day 0 to day +21 for the S 180 sarcoma-bearing mice.
Monitoring of body weight was conducted in order to evaluate the evolution of the neoplastic process. Compounds activity was assessed as Mean Survival Time (MST).

[3] = test system: plaque-forming cells (PFC) in the spleen of SRBC-immunized mice; assay: Primary antibody production (Jerne test) in the spleen of SRBC immunized mice; type: in vivo
Experimental: Test 1 Assessment of the effect of ST 657 and ST 789 on the primary antibody production (Jerne test) in the spleen of SRBC (Sheep Red Blood Cells) immunized mice.
Male B6 D2 F1 mice (Charles River, Italy) aged 7-8 weeks (6 animals per group) were used. In this test, the animals were examined separately.
The compounds were administered i.p. at the doses of 2.5 and 25 mg/kg (single administration) the same day of immunization (Table 1) or, at the dose of 2.5 mg/kg/day (repeated administrations), at days -2, 0 and +2 (immunization at day 0) (Table 2).
The experimental procedure has been described by Jerne, N.K. et al, Transpl. Rev., 18, 130 (1974). In particular, the animals were immunized by i.p. administrations of a SRBC suspension (1×10^7 cells/mouse in 0.2 mL of sterile saline).
5 days following treatment, the spleens were aseptically excised from the sacrificed animals.
The concentration of the splenocytes obtained from the spleen was adjusted to 1×10^7 cells/mL. Aliquots of 0.1 mL of suspension were mixed with warm agar-Hank's (2 mL) and 10% SRBC in PBS buffer (0.2 mL), seeded in Petri dishes and incubated at 37° C. for 60 minutes (samples tested in triplicates). Following addition of complement (2 mL of guinea pig serum diluted 1:10 in Tris buffer), Petri dishes were further incubated at 37° C. for 30 minutes. In the presence of complement, the antibody-secreting cells of splenocytes extracted from the spleens of SRBC-immunized mice cause a hemolytic reaction. This reaction brings about the formation of lytic plaques in the samples.
The results obtained are expressed as follows: […]
(a) number of plaque-forming cells (PFC) out of 10^6 cells;
(b) number of plaque-forming cells in the whole spleen.
The data obtained are processed with Dunnett's test (Biostatistics in Pharmacology, vol. II, Pergamon Press) to assess the statistical significance of differences recorded between groups of treated and control animals.

[4] = test system: rat granulocytes; assay: "In vitro-ex vivo" chemotactic activity of rat granulocytes; details: 25 mg/kg/day i.p. from day -5 to day -1, blood sample at day 0
Experimental: (§1) Test 3 Assessment of the "in vitro" and "in vitro-ex vivo" effect of ST 657 and ST 789 on the chemotactic activity of rat granulocytes.
(§2) Male Fisher-344 rats aged about 3 months were used (6-8 animals for each experimental group).
(§3) The compounds were tested "in vitro", 10 mcg/mL, and "in vitro-ex vivo" following administration of 25 mg/kg/day from day -5 to day -1 (taking of blood sample at day 0).
(§4) The experimental procedure is described by Cates, L. K. et al (1987), Modified Boyden chamber method of measuring polymorphonuclear leukocyte chemotaxis, Leukocyte Chemotaxis, Raven Press, N.Y. 67.
(§5) Blood samples were collected from animals sacrificed by decapitation. Following passage through heparinized gauze, blood was diluted (1:1) with dextran (1.5% in saline) and allowed to sediment for 90 minutes.
The concentration of the granulocytes, collected from blood via known techniques, was adjusted to 2×10^6 cells/mL in Hank's medium. They were then seeded on 3 μMillipore filters which were placed in migration chambers. […]
Microscopic examination of samples versus control allows the distance (in μm) run by the two most forward granulocytes in the framed field to be determined. Granulocyte migration is determined by calculating the mean value of 10 readings performed as a whole on two filters per sample. […]

[5] = test system: rat granulocytes; assay: "In vitro" chemotactic activity of rat granulocytes (modified Boyden chamber); type: cell-based; details: for "in vitro" chemotaxis (μ ± S.E.): 10 mcg/mL, granulocytes of untreated rats; for chemotactic activity of rat granulocytes versus the control (in words): in vitro and in vitro-ex vivo
Experimental: as §1, §2, §3, §4, §5
The concentration of the granulocytes, collected from blood via known techniques, was adjusted to 2×10^6 cells/mL in Hank's medium. They were then seeded on 3 μMillipore filters which were placed in migration chambers.
These chambers were prepared using Hank's medium to evaluate the spontaneous migration, and casein (2 mL of solution, at the concentration 5 mg/mL) to evaluate the induced migration.
In performing the "in vitro" test, granulocytes of untreated animals were used, to which the compounds had been added before seeding thereof on the Millipore filters preparation of migration chambers.
Following incubation of the samples at 37° C. and 5% CO2 for 60 minutes, the filters were stained and mounted on microscope slides.
Microscopic examination of samples versus control allows the distance (in μm) run by the two most forward granulocytes in the framed field to be determined. Granulocyte migration is determined by calculating the mean value of 10 readings performed as a whole on two filters per sample.
The results obtained were statistically processed with Student's "t" test (Biostatistics in Pharmacology, loc, cit.).

[6] = K. pneumoniae 1.5 × 10^5 cells, animals aged 6 weeks, 0.25 mg/kg/day i.p. day -5 to -1
[7] = K. pneumoniae 1.5 × 10^5 cells, animals aged 6 weeks, 25 mg/kg/day i.p. day -5 to -1
[8] = K. pneumoniae 3.5 × 10^5 cells, animals aged 12 weeks, 0.25 mg/kg/day i.p. day -5 to -1
[9] = K. pneumoniae 3.5 × 10^5 cells, animals aged 12 weeks, 25 mg/kg/day i.p. day -5 to -1
[10] = 25 mg/kg i.p., single administration on the day of immunization
[11] = 2,5 mg/kg i.p., single administration on the day of immunization
[12] = 2,5 mg/kg/day i.p. at days -2, 0, +2 (immunization at day 0)

## N=C(N)NCCC[C@H](NC(=O)OCCCCCn1cnc2c(=O)[nH]cnc21)C(=O)O [ST 789, N-5-(ipoxantin-9-yl) pentyloxycarbonylarginine, reference compound]
[1]; [6]
  % Mortality: 50%
[1]; [7]
  % Mortality: 40%
[1]; [8]
  % Mortality: 50%
[1]; [9]
  % Mortality: 60%
[2]
  Dead/total: 8/9
  MST (mean survival time calculated by the median and the first interquartile range): 22.0 (20.5-≥25.5)
  animals survived (footnote, end of observation): One
[2]; Day 0
  Weight control (x ± S.E.): 21.8 ± 0.5
[2]; Day 2
  Weight control (x ± S.E.): 22.4 ± 0.5
[2]; Day 4
  Weight control (x ± S.E.): 24.3 ± 0.6
[2]; Day 7
  Weight control (x ± S.E.): 25.8 ± 0.7
[2]; Day 9
  Weight control (x ± S.E.): 26.9 ± 0.8
[2]; Day 11
  Weight control (x ± S.E.): 29.2 ± 1.2
[2]; Day 14
  Weight control (x ± S.E.): 33.1 ± 2.0
[2]; Day 16
  Weight control (x ± S.E.): 34.0 ± 2.0
[2]; Day 21
  Weight control (x ± S.E.): 32.8 ± 2.2
  number of surviving animals at the indicated day: 5
[3]; [10]
  PFC/10^6 cells (x and ranges of variation): 339 (318-360) PFC/10^6 cells
  PFC/spleen (x and ranges of variation): 58137 (54505-62010) PFC/spleen
[4]
  "in vitro-ex vivo" chemotaxis (μ ± S.E.): 79.8 ± 1.53 μ
[5]
  "in vitro" chemotaxis (μ ± S.E.): 38.8 ± 4.47 μ
  chemotactic activity of rat granulocytes versus the control (in words): totally inactive

## N-5-(ipoxantin-9-yl) pentyloxycarbonyl glycyl L-aspartate disodium salt [ST 657]
[1]; [6]
  % Mortality: 50%
[1]; [7]
  % Mortality: 20%
[1]; [8]
  % Mortality: 33%
[1]; [9]
  % Mortality: 60%
[1]; comparison with ST 789, K. pneumoniae and S. typhimurium tables
  protective effect in immunodepressed infected mice (in words): protective effect more potent than ST 789
[2]
  Dead/total: 5/9
  MST (mean survival time calculated by the median and the first interquartile range): 26.0 (20.5-≥47.0)
  animals survived (footnote, end of observation): 4
[2]; Day 0
  Weight control (x ± S.E.): 22.2 ± 0.3
[2]; Day 2
  Weight control (x ± S.E.): 22.0 ± 0.6
[2]; Day 4
  Weight control (x ± S.E.): 23.9 ± 0.4
[2]; Day 7
  Weight control (x ± S.E.): 26.1 ± 0.4
[2]; Day 9
  Weight control (x ± S.E.): 27.3 ± 0.5
[2]; Day 11
  Weight control (x ± S.E.): 28.6 ± 0.6
[2]; Day 14
  Weight control (x ± S.E.): 31.2 ± 1.0
[2]; Day 16
  Weight control (x ± S.E.): 31.4 ± 1.1
[2]; Day 21
  Weight control (x ± S.E.): 32.9 ± 1.0
  number of surviving animals at the indicated day: 6
[2]; comparison with ST 789, S 180 and L 1210 tables
  MST / protection in tumor-bearing mice (in words): higher MST and/or a better protection than ST 789
[3]; [10]
  PFC/10^6 cells (x and ranges of variation): 422 (403-443) PFC/10^6 cells
  PFC/spleen (x and ranges of variation): 61276 (54294-63323) PFC/spleen
[3]; [11]
  PFC/10^6 cells (x and ranges of variation): 393 (368-420) PFC/10^6 cells
  PFC/spleen (x and ranges of variation): 62356 (59939-64871) PFC/spleen
[3]; [12]
  PFC/10^6 cells (x and ranges of variation): 416 (372-465) PFC/10^6 cells
  PFC/spleen (x and ranges of variation): 67195 (59781-75529) PFC/spleen
[3]; comparison with ST 789
  increase of PFC number with respect to control (in words): more active than ST 789
[4]
  "in vitro-ex vivo" chemotaxis (μ ± S.E.): 89.3 ± 1.95 μ
[5]
  "in vitro" chemotaxis (μ ± S.E.): 54.8 ± 3.05 μ
  chemotactic activity of rat granulocytes versus the control (in words): effective in enhancing the chemotactic activity
